Tests used:
[1] = molecular target: CB2 (Peripheral receptors) (Homo sapiens, UniProt P34972); conditions: cited from earlier work
[2] = Stability of purified CBDA in solution; format: physicochemical
Description: This undesirable decarboxylation of the purified material might be minimised by manipulation of CBDA at sub-ambient temperatures.

Chain of CB2 (Peripheral receptors) (P34972 whole entry, species assumed): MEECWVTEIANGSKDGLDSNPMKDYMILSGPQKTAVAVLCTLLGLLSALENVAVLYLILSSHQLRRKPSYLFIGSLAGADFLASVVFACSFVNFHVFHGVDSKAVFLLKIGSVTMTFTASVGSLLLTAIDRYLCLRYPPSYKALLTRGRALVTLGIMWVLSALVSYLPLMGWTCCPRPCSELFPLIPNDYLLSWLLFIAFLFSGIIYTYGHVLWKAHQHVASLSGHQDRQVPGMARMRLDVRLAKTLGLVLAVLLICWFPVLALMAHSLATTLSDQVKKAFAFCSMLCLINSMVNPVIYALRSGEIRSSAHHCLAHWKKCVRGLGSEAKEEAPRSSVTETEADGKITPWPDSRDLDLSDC

| Structure (SMILES) | binding to CB2 receptors [1] | decarboxylation in solution (CBDA→CBD+CO2) [2] |
| --- | --- | --- |
| CCCCCc1cc(O)c2c(c1)OC(C)(C)[C@@H]1CCC(C)=C[C@@H]21 [THC, delta^9-tetrahydrocannabinol] | bound with high avidity |  |
| C=C(C)[C@@H]1CCC(C)=C[C@H]1c1c(O)cc(CCCCC)c(C(=O)O)c1O [CBDA] |  | slowly decarboxylates in solution |
